Test results as given in patent publication US5547684A, “Cosmetic composition containing a DNA-sodium salt and methods of making and using the same” (priority 1993, dated 1996).

Columns and labels:
[1] = test system: HIV (HIV-IVS and HIV-1 HTLV/IIIB strains); assay: HIV suppression in vitro (syncitia, viral antigen IFA), CEM-SS and MT-4 cells; format: cell-based; conditions: Table 1; comparison preparation, no ratio
Protocol: Complexes of DNA-Na with zinc, cobalt, nickel and iron were used for HIV suppression in in vitro systems with various concentrations of the components in the complexes. AZT manufactured by "Wellcome" Company was used for comparison purposes. The antiviral activity of the preparation was tested according to the method recommended by WHPO for these purposes. CEM-SS and MT-4 reinoculated human cell lines were used. The cells were cultivated in the concentration of (0.03-0.05)*10^6 cells per 1 ml of RPMI 1640 medium with 10% calf fetal serum, […] of L-glutamine, 100 mcg/ml of gentamicin and grown in the form of a suspension. The vitality of cells was tested by dyeing them with 0.4% solution of threpane blue dye stuff. HIV-IVS and HIV-1 HTLV/IIIB strains were used as the virus sources.
The cell suspension was placed into 24 well panels, processed by various doses of preparations and then infected by HIV. The infection multiplicity was 0.01 TCD50 per cell. After that, the cultures were incubated at 37° C. in a 5% CO2 atmosphere and 98% humidity for 5-7 days up to the moment of defining the cytopathic effect of the virus upon the cell culture.
Immunophermentative analysis was used to define formation of viral antigen.

CEM-SS and MT-4 cells = assay: Cytotoxicity of preparations, threpane blue vitality of cells; format: cell-based, human; conditions: Table 1; comparison preparation, no ratio
Protocol: The antiviral activity of the preparation was tested according to the method recommended by WHPO for these purposes. CEM-SS and MT-4 reinoculated human cell lines were used. The cells were cultivated in the concentration of (0.03-0.05)*10^6 cells per 1 ml of RPMI 1640 medium with 10% calf fetal serum, 300 mg/ml of L-glutamine, 100 mcg/ml of gentamicin and grown in the form of a suspension. The vitality of cells was tested by dyeing them with 0.4% solution of threpane blue dye stuff. HIV-IVS and HIV-1 HTLV/IIIB strains were used as the virus sources.

normal cells = conditions: cited from earlier work
white mice = assay: in vivo; conditions: for surviving mice / infected mice: Table 3
Protocol: (§1) The studies on toxicity of AC-1 and AC-4 and of aziodothymidine were conducted on non-linear white mice weighing 6 to 7 grams, making use of different concentrations of preparations per kg of weight of the animal in the volume of 0.2 ml in hypodermic, intranasal and intraabdominal injections and 0.03 ml in intracerebral injections. The animals were kept under observation for 2 weeks and then LD50 was calculated using Curber method. The lethal dose of the preparation which has caused death of 50% of the animals was considered an LD50 dose. The preparation was used as a sterile solution was a concentration of 0.05%.
(§2) The animals were kept under observation for 2 weeks and then LD50 was calculated using Curber method. The lethal dose of the preparation which caused death of 50% of the animal was considered the LD50 dose.

in vivo = conditions: mouse, in vivo
Protocol: as §1, §2

HIV-1 (HTLV-IIIB) = assay: Anti-virus activity of AC-series preparations on infected cells (syncitia, p24 antigen); format: cell-based
Protocol: Antiviral activity of these preparations toward HIV-1 was studied using as the model, cellular cultures infected with HIV-1.
The testing of anti-virus activity was conducted using two types of interwoven cellar lines sensitive to infecting by AIDS-virus--the MT-4 cells and Yurkat tat III cells. The cells were harvested in suspension form in a PPMI 1640 medium containing 15% of fetal serum with exposure to the atmosphere characterized by 5% CO2 content, 98% humidity level and 37% C. temperature level. The cells were infected by the HTLV-IIIB culture of AIDS-1 virus in accordance with WHO recommendations for conducting scientific researches on testing pharmaceutical preparations. The methods used for determining anti-virus activity of the tested preparations are recommended for similar purposes by the WHO Reference Laboratory (Belgium) headed by Professor de Clerk who is an internationally recognized leading expert in synthesis and screening chemical preparations for AIDs treatment (I. Antimicrob. Chemoter., 1989, No. 23, Suppl. A 35-46). […]
(§3) The cells were incubated for 6 days under similar conditions and thereafter their viability was determined as well as formation of virus-induced syncytia and virus antigen (p24) using immunofermental analysis. […] The viable cells were counted using thripane blue dye-stuff in the Goryayev chamber.

mice = conditions: 10 mg/kg injected intercerebrally; cited from earlier work
[2] = test system: MT-4 cells and Yurkat tat III cells; assay: Cell viability / toxic effect on cells, AC-series preparations; format: cell-based, human
Protocol: The testing of anti-virus activity was conducted using two types of interwoven cellar lines sensitive to infecting by AIDS-virus--the MT-4 cells and Yurkat tat III cells. The cells were harvested in suspension form in a PPMI 1640 medium containing 15% of fetal serum with exposure to the atmosphere characterized by 5% CO2 content, 98% humidity level and 37% C. temperature level. The cells were infected by the HTLV-IIIB culture of AIDS-1 virus in accordance with WHO recommendations for conducting scientific researches on testing pharmaceutical preparations. The methods used for determining anti-virus activity of the tested preparations are recommended for similar purposes by the WHO Reference Laboratory (Belgium) headed by Professor de Clerk who is an internationally recognized leading expert in synthesis and screening chemical preparations for AIDs treatment (I. Antimicrob. Chemoter., 1989, No. 23, Suppl. A 35-46). The work was done at the Virology Institute of the U.S.S.R. Academy of Medical Sciences on MT-4 human lymphoid cells and on Yurkat tat III cells as indicated above.
as §3

Cc1cn([C@H]2C[C@H](N=[N+]=[N-])[C@@H](CO)O2)c(=O)[nH]c1=O [AZT, azidothymidine]
IFA optical density [1]: 0.091
IFA viral antigen [1]: 0.1 ng/mL
quantity of syncitia, % from the control virus [1]: 8%
cytotoxicity: quantity of cells in ml of cultural liquid (CEM-SS and MT-4 cells): 0.61 × 10^8
normal cells killed (normal cells; optimal dose): about 30%
CC50 (normal cells; read-out: LD50 for cells, cells): ≤ 100 mM
surviving mice / infected mice (white mice; hypoderm., 5 mg/kg): 6/6
surviving mice / infected mice (white mice; hypoderm., 10 mg/kg): 6/6
surviving mice / infected mice (white mice; hypoderm., 20 mg/kg): 6/6
surviving mice / infected mice (white mice; hypoderm., 35 mg/kg): 6/6
surviving mice / infected mice (white mice; hypoderm., 50 mg/kg): 6/6
surviving mice / infected mice (white mice; hypoderm., 75 mg/kg): 6/6
surviving mice / infected mice (white mice; in/abdom., 5 mg/kg): 6/6
surviving mice / infected mice (white mice; in/abdom., 10 mg/kg): 6/6
surviving mice / infected mice (white mice; in/abdom., 20 mg/kg): 6/6
surviving mice / infected mice (white mice; in/abdom., 35 mg/kg): 6/6
surviving mice / infected mice (white mice; in/abdom., 50 mg/kg): 6/6
surviving mice / infected mice (white mice; in/abdom., 75 mg/kg): 6/6
surviving mice / infected mice (white mice; in/cerebr., 5 mg/kg): 6/6
surviving mice / infected mice (white mice; in/cerebr., 10 mg/kg): 6/6
surviving mice / infected mice (white mice; in/cerebr., 20 mg/kg): 6/6
surviving mice / infected mice (white mice; in/cerebr., 35 mg/kg): 6/6
surviving mice / infected mice (white mice; in/cerebr., 50 mg/kg): 6/6
surviving mice / infected mice (white mice; in/cerebr., 75 mg/kg): 6/6
surviving mice / infected mice (white mice; in/nasal, 5 mg/kg): 6/6
surviving mice / infected mice (white mice; in/nasal, 10 mg/kg): 6/6
surviving mice / infected mice (white mice; in/nasal, 20 mg/kg): 6/6
surviving mice / infected mice (white mice; in/nasal, 35 mg/kg): 6/6
surviving mice / infected mice (white mice; in/nasal, 50 mg/kg): 6/6
surviving mice / infected mice (white mice; in/nasal, 75 mg/kg): 6/6
toxicity (white mice; all injection methods, 5 to 50 mg/kg, except intracerebral 10 to 50 mg/kg): non-toxic
LD50 at 336 h (in vivo): 10 mg/kg
mortality at 336 h (in vivo; 10 mg/kg): 50%
antigen (p24) content (HIV-1 (HTLV-IIIB); 1.0 mcm/ml, virus control 2.0 ng/ml): 1 ng/mL
immunofermental activity (HIV-1 (HTLV-IIIB); Table 2, virus antigen (p24), 270 mkg/ml, 6th day): 0.1 ng/mL
death of animals (mice): 50%
viability at 270 µg/mL ([2]; Homo sapiens, MT4, 144 h): 96%
toxicity on the cell level ([2]; all the above biologically active concentrations): nontoxic
